# Assay results as given in ChEMBL document CHEMBL3885881, “DrugMatrix”.
# Species: Rattus norvegicus
# Assay: DrugMatrix - Regimen: Daily Repeat
# Format: toxicity, organism-based, Sprague-Dawley
# Design: regimen Daily Repeat, gender Male, age 6-8 weeks
# Conditions: in vivo, po, route oral GAVAGE; for ABSOLUTE BASOPHIL / ABSOLUTE EOSINOPHIL / ABSOLUTE LYMPHOCYTE / ABSOLUTE MONOCYTE / ABSOLUTE SEGMENTED NEUTROPHIL / BASOPHIL / EOSINOPHIL / ERYTHROCYTE COUNT / HEMATOCRIT / HEMOGLOBIN / LEUKOCYTE COUNT / LYMPHOCYTE / MEAN CORPUSCULAR HEMOGLOBIN / MEAN CORPUSCULAR HEMOGLOBIN CONCENTRATION / MEAN CORPUSCULAR VOLUME / MONOCYTE / NEUTROPHIL / NUCLEATED RED BLOOD CELLS / PLATELET COUNT: tissue Blood; for ALANINE AMINOTRANSFERASE / ALBUMIN / ALKALINE PHOSPHATASE / ASPARTATE AMINOTRANSFERASE / BLOOD UREA NITROGEN / CARBON DIOXIDE / CHLORIDE / CHOLESTEROL / CREATINE PHOSPHOKINASE / CREATININE / GLUCOSE / LACTATE DEHYDROGENASE / LIPASE / PHOSPHORUS / POTASSIUM / SODIUM / TOTAL BILIRUBIN / TOTAL PROTEIN / URIC ACID: tissue Plasma
# [1] = 2500 mg/kg, 72 h, dose level High, time 3 day, vehicle 100 % WATER
# [2] = 2500 mg/kg, 120 h, dose level High, time 5 day, vehicle 100 % WATER
# [3] = 85 mg/kg, 72 h, dose level Low, time 3 day, vehicle .5 % CMC
# [4] = 85 mg/kg, 120 h, dose level Low, time 5 day, vehicle .5 % CMC
smiles,measurement,setting,value
CCN(CC)CCOC(=O)c1ccc(N)cc1 [PROCAINE],ABSOLUTE BASOPHIL,[1],0 CELLS/uL
same,ABSOLUTE EOSINOPHIL,[1],0 CELLS/uL
same,ABSOLUTE LYMPHOCYTE,[1],12849.67 CELLS/uL
same,ABSOLUTE MONOCYTE,[1],127.33 CELLS/uL
same,ABSOLUTE SEGMENTED NEUTROPHIL,[1],789.67 CELLS/uL
same,BASOPHIL,[1],0%
same,EOSINOPHIL,[1],0%
same,ERYTHROCYTE COUNT,[1],5.53 x10E6/uL
same,HEMATOCRIT,[1],34.97%
same,HEMOGLOBIN,[1],13.83 G/DL
same,LEUKOCYTE COUNT,[1],13.77 x10E3/uL
same,LYMPHOCYTE,[1],93.33%
same,MEAN CORPUSCULAR HEMOGLOBIN,[1],24.97 pg
same,MEAN CORPUSCULAR HEMOGLOBIN CONCENTRATION,[1],39.63 G/DL
same,MEAN CORPUSCULAR VOLUME,[1],63.1 fL
same,MONOCYTE,[1],1%
same,NEUTROPHIL,[1],5.67%
same,NUCLEATED RED BLOOD CELLS,[1],0 /100WBC
same,PLATELET COUNT,[1],1276.67 x10E3/uL
same,ALANINE AMINOTRANSFERASE,[1],52.33 u/L
same,ALBUMIN,[1],4.3 G/DL
same,ALKALINE PHOSPHATASE,[1],353.67 u/L
same,ASPARTATE AMINOTRANSFERASE,[1],121.67 u/L
same,BLOOD UREA NITROGEN,[1],13.67 mg/dL
same,CARBON DIOXIDE,[1],25.33 mmol/L
same,CHLORIDE,[1],103.33 MEQ/L
same,CHOLESTEROL,[1],42.33 mg/dL
same,CREATINE PHOSPHOKINASE,[1],550.67 u/L
same,CREATININE,[1],0.21 mg/dL
same,GLUCOSE,[1],173 mg/dL
same,LACTATE DEHYDROGENASE,[1],675.33 u/L
same,LIPASE,[1],9 u/L
same,PHOSPHORUS,[1],14.53 mg/dL
same,POTASSIUM,[1],7.06 MEQ/L
same,SODIUM,[1],146.03 MEQ/L
same,TOTAL BILIRUBIN,[1],0.17 mg/dL
same,TOTAL PROTEIN,[1],5.9 G/DL
same,URIC ACID,[1],2.57 mg/dL
same,ABSOLUTE BASOPHIL,[2],0 CELLS/uL
same,ABSOLUTE EOSINOPHIL,[2],0 CELLS/uL
same,ABSOLUTE LYMPHOCYTE,[2],14457.33 CELLS/uL
same,ABSOLUTE MONOCYTE,[2],61 CELLS/uL
same,ABSOLUTE SEGMENTED NEUTROPHIL,[2],915 CELLS/uL
same,BASOPHIL,[2],0%
same,EOSINOPHIL,[2],0%
same,ERYTHROCYTE COUNT,[2],6.15 x10E6/uL
same,HEMATOCRIT,[2],37.43%
same,HEMOGLOBIN,[2],14.7 G/DL
same,LEUKOCYTE COUNT,[2],15.43 x10E3/uL
same,LYMPHOCYTE,[2],93.33%
same,MEAN CORPUSCULAR HEMOGLOBIN,[2],23.93 pg
same,MEAN CORPUSCULAR HEMOGLOBIN CONCENTRATION,[2],39.3 G/DL
same,MEAN CORPUSCULAR VOLUME,[2],60.87 fL
same,MONOCYTE,[2],0.33%
same,NEUTROPHIL,[2],6.33%
same,NUCLEATED RED BLOOD CELLS,[2],0 /100WBC
same,PLATELET COUNT,[2],1379 x10E3/uL
same,ALANINE AMINOTRANSFERASE,[2],40 u/L
same,ALBUMIN,[2],4.73 G/DL
same,ALKALINE PHOSPHATASE,[2],323.33 u/L
same,ASPARTATE AMINOTRANSFERASE,[2],94 u/L
same,BLOOD UREA NITROGEN,[2],17 mg/dL
same,CARBON DIOXIDE,[2],26 mmol/L
same,CHLORIDE,[2],101.67 MEQ/L
same,CHOLESTEROL,[2],33.67 mg/dL
same,CREATINE PHOSPHOKINASE,[2],281 u/L
same,CREATININE,[2],0.24 mg/dL
same,GLUCOSE,[2],166.67 mg/dL
same,LACTATE DEHYDROGENASE,[2],198.33 u/L
same,LIPASE,[2],9.67 u/L
same,PHOSPHORUS,[2],12.67 mg/dL
same,POTASSIUM,[2],7.55 MEQ/L
same,SODIUM,[2],143.33 MEQ/L
same,TOTAL BILIRUBIN,[2],0.2 mg/dL
same,TOTAL PROTEIN,[2],6.67 G/DL
same,URIC ACID,[2],2 mg/dL
CCCN(CCC)C(=O)C(CCC(=O)O)NC(=O)c1ccccc1 (configuration not stated) [PROGLUMIDE],ABSOLUTE BASOPHIL,[3],0 CELLS/uL
same,ABSOLUTE EOSINOPHIL,[3],331.33 CELLS/uL
same,ABSOLUTE LYMPHOCYTE,[3],13210.67 CELLS/uL
same,ABSOLUTE MONOCYTE,[3],258 CELLS/uL
same,ABSOLUTE SEGMENTED NEUTROPHIL,[3],933.33 CELLS/uL
same,BASOPHIL,[3],0%
same,EOSINOPHIL,[3],2.33%
same,ERYTHROCYTE COUNT,[3],5.4 x10E6/uL
same,HEMATOCRIT,[3],34.93%
same,HEMOGLOBIN,[3],13.17 G/DL
same,LEUKOCYTE COUNT,[3],14.73 x10E3/uL
same,LYMPHOCYTE,[3],89.67%
same,MEAN CORPUSCULAR HEMOGLOBIN,[3],24.43 pg
same,MEAN CORPUSCULAR HEMOGLOBIN CONCENTRATION,[3],37.7 G/DL
same,MEAN CORPUSCULAR VOLUME,[3],64.7 fL
same,MONOCYTE,[3],1.67%
same,NEUTROPHIL,[3],6.33%
same,NUCLEATED RED BLOOD CELLS,[3],0.33 /100WBC
same,PLATELET COUNT,[3],1332 x10E3/uL
same,ALANINE AMINOTRANSFERASE,[3],42.67 u/L
same,ALBUMIN,[3],4.33 G/DL
same,ALKALINE PHOSPHATASE,[3],435.67 u/L
same,ASPARTATE AMINOTRANSFERASE,[3],72.33 u/L
same,BLOOD UREA NITROGEN,[3],16 mg/dL
same,CARBON DIOXIDE,[3],25.33 mmol/L
same,CHLORIDE,[3],104.33 MEQ/L
same,CHOLESTEROL,[3],60.67 mg/dL
same,CREATINE PHOSPHOKINASE,[3],288 u/L
same,CREATININE,[3],0.18 mg/dL
same,GLUCOSE,[3],161.67 mg/dL
same,LACTATE DEHYDROGENASE,[3],90.33 u/L
same,LIPASE,[3],9 u/L
same,PHOSPHORUS,[3],13.33 mg/dL
same,POTASSIUM,[3],6.41 MEQ/L
same,SODIUM,[3],144.2 MEQ/L
same,TOTAL BILIRUBIN,[3],0.23 mg/dL
same,TOTAL PROTEIN,[3],5.93 G/DL
same,URIC ACID,[3],1.67 mg/dL
same,ABSOLUTE BASOPHIL,[4],0 CELLS/uL
same,ABSOLUTE EOSINOPHIL,[4],53.33 CELLS/uL
same,ABSOLUTE LYMPHOCYTE,[4],15727.33 CELLS/uL
same,ABSOLUTE MONOCYTE,[4],190.67 CELLS/uL
same,ABSOLUTE SEGMENTED NEUTROPHIL,[4],1162 CELLS/uL
same,BASOPHIL,[4],0%
same,EOSINOPHIL,[4],0.33%
same,ERYTHROCYTE COUNT,[4],5.46 x10E6/uL
same,HEMATOCRIT,[4],35.63%
same,HEMOGLOBIN,[4],13.3 G/DL
same,LEUKOCYTE COUNT,[4],17.13 x10E3/uL
same,LYMPHOCYTE,[4],92%
same,MEAN CORPUSCULAR HEMOGLOBIN,[4],24.37 pg
same,MEAN CORPUSCULAR HEMOGLOBIN CONCENTRATION,[4],37.4 G/DL
same,MEAN CORPUSCULAR VOLUME,[4],65.13 fL
same,MONOCYTE,[4],1%
same,NEUTROPHIL,[4],6.67%
same,NUCLEATED RED BLOOD CELLS,[4],0 /100WBC
same,PLATELET COUNT,[4],1361 x10E3/uL
same,ALANINE AMINOTRANSFERASE,[4],50.67 u/L
same,ALBUMIN,[4],4 G/DL
same,ALKALINE PHOSPHATASE,[4],346.33 u/L
same,ASPARTATE AMINOTRANSFERASE,[4],79 u/L
same,BLOOD UREA NITROGEN,[4],17 mg/dL
same,CARBON DIOXIDE,[4],24.67 mmol/L
same,CHLORIDE,[4],108 MEQ/L
same,CHOLESTEROL,[4],61.67 mg/dL
same,CREATINE PHOSPHOKINASE,[4],409.67 u/L
same,CREATININE,[4],0.19 mg/dL
same,GLUCOSE,[4],187 mg/dL
same,LACTATE DEHYDROGENASE,[4],92.33 u/L
same,LIPASE,[4],8 u/L
same,PHOSPHORUS,[4],13.57 mg/dL
same,POTASSIUM,[4],5.82 MEQ/L
same,SODIUM,[4],144.9 MEQ/L
same,TOTAL BILIRUBIN,[4],0.27 mg/dL
same,TOTAL PROTEIN,[4],6.03 G/DL
same,URIC ACID,[4],1.67 mg/dL
